Measured values: article PMC6317155, “Identification of Small Peptides that Inhibit NADPH Oxidase (Nox2) Activation” (Antioxidants, 2018)
Positions count from the first letter of the chain named. One block for each sequence: values may come before it.

Columns and labels:
[1] = biological target: T1, aiPLA2 activity of recombinant human Prdx6 (Homo sapiens, UniProt P30041); assay: aiPLA2 (PLA2) activity of recombinant human Prdx6 in vitro, 3H-DPPC liposome substrate; assay type: biochemical; settings: for Activity (aiPLA2 of recombinant hPrdx6), human-derived peptides: deletions from 16-aa human-derived SP-A peptide, no-peptide control 92.0; for Activity (aiPLA2 of recombinant hPrdx6), human-derived peptides / Activity (aiPLA2 of recombinant hPrdx6), deletion from C-term / Activity (aiPLA2 of recombinant hPrdx6), deletion from N-term: one assay done in duplicate; for Activity (aiPLA2 of recombinant hPrdx6), deletion from C-term: peptides deleted from C-terminus of 16-aa rat-derived SP-A peptide, and scrambled peptide; for Activity (aiPLA2 of recombinant hPrdx6), deletion from C-term / Activity (aiPLA2 of recombinant hPrdx6), deletion from N-term: no-peptide control 94.8; for Activity (aiPLA2 of recombinant hPrdx6), deletion from N-term: peptides deleted from N-terminus of 16-aa rat-derived SP-A peptide, 3H-DPPC liposomes, 60 min
T1 sequence (P30041 1-224): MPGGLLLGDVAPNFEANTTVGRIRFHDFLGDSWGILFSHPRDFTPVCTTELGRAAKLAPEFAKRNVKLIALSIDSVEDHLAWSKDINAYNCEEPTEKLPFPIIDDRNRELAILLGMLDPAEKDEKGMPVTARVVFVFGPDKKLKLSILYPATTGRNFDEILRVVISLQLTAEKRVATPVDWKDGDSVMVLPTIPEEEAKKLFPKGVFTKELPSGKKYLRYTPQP
Description: (§1) The PLA2 activity of Prdx6 was measured as described previously. The substrate was dipalmitoylphosphatidylcholine (DPPC) with ^3H-9,10-palmitate in the sn-2 position of DPPC incorporated into lung surfactant-like liposomes as described above; substrate was incubated with enzyme for 60 min and activity was calculated from the liberation of ^3H-palmitate as measured by scintillation counting.
The effect of the PIP peptides on the aiPLA2 activity of human recombinant Prdx6 was determined by in vitro assay; the effective concentration of inhibitor was corrected for purity of the PIP preparation. Saturating concentrations of all three peptides (PIP-1, PIP-2, PIP-3) inhibited aiPLA2 activity by ~70% (Figure 2). The basis for the remaining 30% of activity that was not inhibited is unclear.

[2] = biological target: T1, aiPLA2 activity of recombinant human Prdx6; assay: Chemical stability of dry powder on laboratory shelf, read out as inhibition of aiPLA2 activity; assay type: physicochemical; settings: room temperature, nine months, data not shown
Excerpt: These peptides have a molecular mass of 1156–1178 with a predicted isoelectric point in the slightly basic range. Each of the three peptides contains four hydrophobic amino acid residues, with two of those on the same surface, and one negatively charged hydrophilic aa. The PIP-2 sequence has three while PIPs-1 and -3 have only two positively charged aa. PIP-1 is slightly more hydrophobic than the other two peptides but, in our experience, all three peptides readily dissolve in aqueous solution. […] No antigenic determinants were identified in these peptides as determined by the free on-line program provided by the Immunomedicine Group of the Universidad Complutense (Madrid, Spain). The chemical stability of PIP-2 was tested by placing the dry powder on the laboratory shelf at room temperature; its inhibition of the aiPLA2 activity of recombinant human Prdx6 was unchanged when measured after nine months of shelf storage indicating good stability of the peptide as a dry powder (data not shown); stability of the other peptides was not tested.

[3] = biological target: T2, aiPLA2 activity of lung homogenate (Mus musculus, UniProt O08709); assay: aiPLA2 activity of homogenate of isolated mouse lungs perfused with PIP-2; settings: inferred from lack of effect without liposomal carrier in lungs
T2 construct: from tissue; host or cells: mouse (C57Bl/6) lung homogenate
T2 sequence (O08709 1-224): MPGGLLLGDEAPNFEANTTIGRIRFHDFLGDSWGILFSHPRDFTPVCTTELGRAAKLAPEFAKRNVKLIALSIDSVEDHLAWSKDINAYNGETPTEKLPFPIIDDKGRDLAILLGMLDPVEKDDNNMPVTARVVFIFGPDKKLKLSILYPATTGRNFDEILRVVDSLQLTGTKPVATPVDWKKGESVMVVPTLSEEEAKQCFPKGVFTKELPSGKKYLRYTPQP
Description: as §1
To confirm the requirement for liposomes as a delivery vehicle, lungs were perfused for 15 min with PIP-2 incorporated or not into liposomes, then perfused with fresh medium to clear extracellular PIP-2, and then homogenized and assayed for aiPLA2 activity. PIP-2 administered without liposomes had no effect on aiPLA2 activity of the lung homogenate while PIP-2 in liposomes inhibited activity by ~80% (Table 5).

lung aiPLA2 activity = biological target: T3, lung aiPLA2 activity (Mus musculus, UniProt O08709); assay: Lung aiPLA2 activity after a single IT or IV dose in mice in vivo; settings: single dose in liposomes, estimated
T3 construct: from tissue; host or cells: mouse (C57Bl/6) lung homogenate
T3 sequence (O08709 1-224): T2 sequence (O08709 1-224)
Description: For administration to mice, peptides were incorporated into liposomes that were prepared as previously described. Liposome composition was dipalmitoylphosphatidylcholine (DPPC): egg phosphatidylcholine: phosphatidylglycerol: cholesterol in the molar ratio 50:25:10:15. To measure the in vivo effect of the peptides, mice were injected with PIP-2 by either the intratracheal (IT) or the intravenous (IV) route and were sacrificed at intervals; lungs were removed from mice and homogenized for measurement of aiPLA2 activity.
as §1
To determine the effect and duration of a single dose of PIP-2 on aiPLA2 activity of mouse lungs in vivo, mice were injected with PIP-2 in liposomes by either the intratracheal (IT) or the intravenous (IV) route; individual lungs were removed at intervals, homogenized, and assayed for aiPLA2 activity. […]
Figure 4 Persistence and stability of PIP-2 in vivo. […] Lungs were harvested at intervals between 4 and 72 h after the PIP-2 administration, homogenized, and analyzed for aiPLA2 activity. […]

[4] = biological target: T4, PLA2 activity of Prdx6 (aiPLA2) (Mus musculus, UniProt O08709); assay: PLA2 activity of lung homogenate at pH 4 without Ca2+ (aiPLA2), PIP-2 added to the assay; assay type: biochemical; settings: wild type mouse lung homogenate, no Ca2+; no inhibitor 8.7 ± 0.16; mean ± range, n = 2
T4 construct: from tissue; host or cells: mouse (C57Bl/6) lung homogenate
T4 sequence (O08709 2-224): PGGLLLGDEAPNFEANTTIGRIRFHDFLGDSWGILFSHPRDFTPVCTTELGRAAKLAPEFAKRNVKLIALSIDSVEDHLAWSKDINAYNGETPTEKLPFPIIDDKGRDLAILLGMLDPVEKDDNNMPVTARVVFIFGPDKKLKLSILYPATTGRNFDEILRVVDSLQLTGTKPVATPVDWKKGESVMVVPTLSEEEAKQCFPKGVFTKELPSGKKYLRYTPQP
Description: as §1
(§2) Lung cells, like those of other organs, have multiple PLA2 enzymes. We evaluated the specificity of PIP-2 for inhibition of Prdx6 by measuring aiPLA2 activity in the lung homogenate of wild type and D140A-Prdx6 mutant mice. […] Measurement of PLA2 activity at pH 4 in the absence of Ca^2+ is relatively specific for the PLA2 activity of Prdx6 (aiPLA2). This activity was inhibited by 91% following addition of PIP-2 to the assay of the lung homogenate (Table 6). Although Prdx6 has relatively little PLA2 activity when measured at pH 7, other lung PLA2 enzymes, some of which are Ca^2+-dependent for activity, show activity at neutral pH; this activity was not affected by mutation of D140 in Prdx6 (Table 6). Unlike the effect of PIP-2 on aiPLA2 activity at pH 4, the addition of PIP-2 had no effect on activity of the lung PLA2 enzymes that are active at pH 7. Thus, aiPLA2 appears to be the only PLA2 enzyme, at least in the lung, that is inhibited by PIP-2.

[5] = biological target: T5, PLA2 activity of Prdx6 (aiPLA2) (Mus musculus, UniProt O08709, D140A); assay: as above; assay type: biochemical; settings: D140A-Prdx6 knock-in mouse lung homogenate, no Ca2+; no inhibitor 0.2 ± 0.03; mean ± range, n = 2
T5 construct: from tissue; host or cells: mouse (C57Bl/6) lung homogenate
T5 sequence (O08709 2-224 D140A): T4 sequence (O08709 2-224) with D139A
Description: as §1, §2

[6] = tested on: lung PLA2 enzymes that are active at pH 7; assay: PLA2 activity of lung homogenate at pH 7 with Ca2+ (other lung PLA2 enzymes), PIP-2 added to the assay; assay type: biochemical, mouse
Description: as §1, §2

Sequence: DEELQTEL [8-aa C-terminal deletion of rat 16-aa peptide]
Activity (aiPLA2 of recombinant hPrdx6), deletion from C-term [1]: 93.6 nmol/min/mg Prot.

Sequence: DEELQTELYEIKHQ [14-aa C-terminal deletion of rat 16-aa peptide]
Activity (aiPLA2 of recombinant hPrdx6), deletion from C-term [1]: 102 nmol/min/mg Prot.

Sequence: ELYEIKHQI [9-aa peptide lacking the C-terminal Leu]
Activity (aiPLA2 of recombinant hPrdx6), deletion from C-term [1]: 89.6 nmol/min/mg Prot.

Sequence: ELYEIKHQIL [10-aa N-terminal deletion of rat 16-aa peptide]
Activity (aiPLA2 of recombinant hPrdx6), deletion from N-term [1]: 28.6 nmol/min/mg Prot.

Sequence: LHDFRHQIL [PIP-2]
Activity (aiPLA2 of recombinant hPrdx6), human-derived peptides [1]: 29.9 nmol/min/mg Prot. | Inhibition of aiPLA2 activity at saturating concentrations of peptide ([1]; recombinant human Prdx6, Figure 2, mean + SEM, n = 3): ~ 70% | Concentration of peptide for inhibition of aiPLA2 activity by 50% ([1]; recombinant human Prdx6, concentration corrected for purity of the PIP preparation, Figure 2, n = 3): ~ 6.6 µg/mg Prdx6 | Chemical stability: inhibition of aiPLA2 activity after shelf storage [2]: unchanged | Ability to cross the cell membrane [3]: not able to cross the cell membrane | Half-time for recovery of lung aiPLA2 activity (decrease of in vivo inhibition) (lung aiPLA2 activity): ~ 50 h | PLA2 activity, pH 4, WT [4]: 1.6 ± 0.10 nmol/min/mg Prot. | PLA2 activity, pH 4, D140A-Prdx6 [5]: 0.2 ± 0.06 nmol/min/mg Prot. | PLA2 activity, pH 7 + Ca2+, D140A-Prdx6 ([6]; D140A-Prdx6 knock-in mouse lung homogenate, no inhibitor 8.3 ± 0.26, mean ± range, n = 2): 8.5 ± 0.10 nmol/min/mg Prot. | Effect on activity of lung PLA2 enzymes active at pH 7 ([6]; PIP-2 added to assay of lung homogenate): no effect

Other lines, results leading:

Activity (aiPLA2 of recombinant hPrdx6), human-derived peptides [1]: 45.0 nmol/min/mg Prot.
Sequence: DEELQATLHDFRHQIL [16 aa human SP-A-derived peptide]

Activity (aiPLA2 of recombinant hPrdx6), deletion from C-term [1]: 32.0 nmol/min/mg Prot. | Activity (aiPLA2 of recombinant hPrdx6), deletion from N-term [1]: 32.0 nmol/min/mg Prot.
Sequence: DEELQTELYEIKHQIL

Activity (aiPLA2 of recombinant hPrdx6), deletion from N-term [1]: 33.2 nmol/min/mg Prot.
Sequence: ELQTELYEIKHQIL [14-aa N-terminal deletion of rat 16-aa peptide]

Activity (aiPLA2 of recombinant hPrdx6), deletion from C-term [1]: 93.5 nmol/min/mg Prot.
Sequence: LELDEEITEYQKQLHI [Scrambled peptide, scrambled 16-aa control peptide, reference compound]
